Data published in ChEMBL document CHEMBL4818998, “Melatonin derivatives combat with inflammation-related cancer by targeting the Main Culprit STAT3” (Eur J Med Chem, 2021).
Active and inactive are the calls of the source. No cut-off for these calls is given here.

Key:
HepG2 = assay: Antiproliferative activity against human HepG2 cells assessed as inhibition of cell proliferation measured after 72 hrs by MTT assay; assay type: functional, cell-based; conditions: HepG2, 72 h
MGC-803 [1] = assay: Antiproliferative activity against human MGC-803 cells assessed as inhibition of cell proliferation measured after 72 hrs by MTT assay; assay type: functional, cell-based; conditions: MGC-803, 72 h
SGC-7901 = assay: Antiproliferative activity against human SGC-7901 cells assessed as inhibition of cell proliferation measured after 72 hrs by MTT assay; assay type: functional, cell-based; conditions: SGC-7901, 72 h
HGC-27 = assay: Antiproliferative activity against human HGC-27 cells assessed as inhibition of cell proliferation measured after 72 hrs by MTT assay; assay type: functional, cell-based; conditions: HGC-27, 72 h
[2] = Cytotoxicity against human HCT-116 cells assessed as cell viability at <36 uM measured after 24 hrs by CCK8 assay; assay type: cell-based; conditions: read-out: Activity
MGC-803 [3] = assay: Cytotoxicity against human MGC-803 cells assessed as reduction in cell viability at <20 uM measured after 24 hrs by CCK8 assay; assay type: cell-based; conditions: mgc-803, 24 h
HCT-116 [4] = assay: Cytotoxicity against human HCT-116 cells assessed as reduction in cell viability at <=20 uM measured after 48 hrs by CCK8 assay; assay type: cell-based; conditions: hct-116, 48 h
MGC-803 [5] = assay: Inhibition of clonogenicity in human MGC-803 cells assessed as reduction in colony formation measured after 6 days by crystal violet staining based analysis; assay type: functional, cell-based; conditions: dose 2-16 µM, time 6.0 day
HCT-116 [6] = assay: Antiproliferative activity against human HCT-116 cells assessed as decrease in cell population at S-phase at 1.25 to 10 uM measured after 24 hrs by EdU incorporation based fluorescence microscopic analysis; assay type: functional; conditions: dose 1.25-10 µM
MGC-803 [7] = assay: Antiproliferative activity against human MGC-803 cells assessed as decrease in cell population at S-phase at 2 to 16 uM measured after 24 hrs by EdU incorporation based fluorescence microscopic analysis; assay type: functional; conditions: dose 2-16 µM
HCT-116 [8] = assay: Induction of cell cycle arrest in human HCT116 cells assessed as accumulation of cells at G0/G1 phase at 20 uM measured after 48 hrs by propidium iodide staining based flow cytometry analysis (reference value: 70.45%); assay type: functional
HCT-116 [9] = assay: Induction of apoptosis in human HCT-116 cells assessed as late apoptotic cells at 2.5 uM measured after 48 hrs by Annexin V-FITC/PI staining based flow cytometry assay (reference value: 1.42%); assay type: functional
HCT-116 [10] = assay: Induction of apoptosis in human HCT-116 cells assessed as necrotic cells at 5 uM measured after 48 hrs by Annexin V-FITC/PI staining based flow cytometry (reference value: 1.5%); assay type: functional
HCT-116 [11] = assay: Induction of apoptosis in human HCT-116 cells assessed as viable cells at 10 uM measured after 48 hrs by Annexin V-FITC/PI staining based flow cytometry (reference value: 94.9%); assay type: functional; conditions: read-out: Activity
HCT-116 [12] = assay: Induction of apoptosis in human HCT-116 cells assessed as viable cells at 20 uM measured after 48 hrs by Annexin V-FITC/PI staining based flow cytometry (reference value: 94.9%); assay type: functional; conditions: read-out: Activity
HCT-116 [13] = assay: Induction of apoptosis in human HCT-116 cells assessed as early apoptotic cells at 20 uM measured after 48 hrs by Annexin V-FITC/PI staining based flow cytometry (reference value: 2.14%); assay type: functional
HCT-116 [14] = assay: Induction of apoptosis in human HCT-116 cells assessed as necrotic cells at 20 uM measured after 48 hrs by Annexin V-FITC/PI staining based flow cytometry (reference value: 1.5%); assay type: functional
HCT-116 [15] = assay: Induction of apoptosis in human HCT-116 cells assessed as chromatin pyknosis at 2.5 to 15 uM measured after 48 hrs by Giemsa staining method; assay type: functional, cell-based; conditions: dose 2.5-15 µM
MGC-803 [16] = assay: Antimetastatic activity against human MGC-803 cells assessed as inhibition of cell migration measured after 24 hrs by transwell assay; assay type: functional, cell-based; conditions: dose 2.5-15 µM
HCT-116 [17] = assay: Downregulation of STAT3 protein expression in human HCT-116 cells at 2.5 to 10 uM measured after 48 hrs by western blot assay; assay type: functional, cell-based; conditions: dose 2.5-10 µM
[18] = biological target: Signal transducer and activator of transcription 3 (Homo sapiens) (UniProt P40763); assay: Inhibition of STAT3 in human HCT-116 cells assessed as decrease in STAT3 phosphorylation at 2.5 to 10 uM measured after 48 hrs by western blot assay; assay type: cell-based; conditions: dose 2.5-10 µM
Chain of Signal transducer and activator of transcription 3 (Homo sapiens) (P40763 whole entry): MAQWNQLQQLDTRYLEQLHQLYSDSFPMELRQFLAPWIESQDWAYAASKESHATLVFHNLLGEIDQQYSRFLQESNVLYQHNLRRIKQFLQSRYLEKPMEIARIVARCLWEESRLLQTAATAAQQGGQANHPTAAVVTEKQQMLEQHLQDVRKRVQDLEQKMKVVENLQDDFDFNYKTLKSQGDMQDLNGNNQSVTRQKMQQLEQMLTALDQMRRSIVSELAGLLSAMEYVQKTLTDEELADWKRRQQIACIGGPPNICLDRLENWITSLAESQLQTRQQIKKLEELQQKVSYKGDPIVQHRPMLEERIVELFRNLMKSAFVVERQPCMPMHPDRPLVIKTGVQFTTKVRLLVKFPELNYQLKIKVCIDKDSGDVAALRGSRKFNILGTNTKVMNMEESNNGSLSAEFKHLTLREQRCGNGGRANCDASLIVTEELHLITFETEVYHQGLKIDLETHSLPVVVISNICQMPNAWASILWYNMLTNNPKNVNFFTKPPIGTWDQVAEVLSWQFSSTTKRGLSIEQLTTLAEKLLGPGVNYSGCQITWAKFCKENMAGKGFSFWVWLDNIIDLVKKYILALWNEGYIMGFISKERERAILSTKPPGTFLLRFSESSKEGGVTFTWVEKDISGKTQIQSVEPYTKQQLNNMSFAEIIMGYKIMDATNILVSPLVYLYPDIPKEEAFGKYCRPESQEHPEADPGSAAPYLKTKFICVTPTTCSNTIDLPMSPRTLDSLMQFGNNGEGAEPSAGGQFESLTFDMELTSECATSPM

MGC-803 [19] = assay: Downregulation of STAT3 expression in human MGC-803 cells at 4 to 16 uM measured after 48 hrs by western blot assay; assay type: functional, cell-based; conditions: dose 4-16 µM
[20] = biological target: Signal transducer and activator of transcription 3 (Homo sapiens) (UniProt P40763); assay: Inhibition of STAT3 in human MGC-803 cells assessed as decrease in STAT3 phosphorylation at 4 to 16 uM measured after 48 hrs by western blot assay; assay type: cell-based; conditions: dose 4-16 µM
[21] = Toxicity in Kunming mouse assessed as animal activity at 1000 mg/kg, ig measured for 14 days; assay type: organism-based; conditions: in vivo, po, 336 h, time 14 day
HCT-116 [22] = assay: Induction of apoptosis in human HCT-116 cells assessed as […] of cleaved caspase-3 expression at 2.5 to 10 uM measured after 48 hrs by western blot assay; assay type: functional, cell-based; conditions: dose 2.5-10 µM
[23] = Toxicity in Kunming mouse assessed as animal survival at 1000 mg/kg, ig measured for 14 days; assay type: organism-based; conditions: in vivo, po, 336 h, time 14 day
[24] = Toxicity in Kunming mouse assessed as hair condition at 1000 mg/kg, ig measured for 14 days; assay type: organism-based; conditions: in vivo, po, 336 h, time 14 day
[25] = Toxicity in Kunming mouse assessed as feeding frequency and amount at 1000 mg/kg, ig measured for 14 days; assay type: organism-based; conditions: in vivo, po, 336 h, time 14 day
[26] = Half life in Sprague-Dawley rat at 100 mg/kg, ig measured for 24 hrs by LC-MS analysis; assay type: ADME, organism-based; conditions: in vivo, po
[27] = Tmax in Sprague-Dawley rat at 100 mg/kg, ig measured for 24 hrs by LC-MS analysis; assay type: ADME, organism-based; conditions: in vivo, po
[28] = Cmax in Sprague-Dawley rat at 100 mg/kg, ig measured for 24 hrs by LC-MS analysis; assay type: ADME, organism-based; design: route intragastric, time 24 hrs, dose 100 mg/kg; conditions: in vivo, po
[29] = Observed AUC (0 to infinity) in Sprague-Dawley rat at 100 mg/kg, ig measured for 24 hrs by LC-MS analysis; assay type: ADME, organism-based; design: route intragastric, time 24 hrs, dose 100 mg/kg; conditions: in vivo, po
MGC-803 [30] = assay: Induction of apoptosis in human MGC-803 cells at 2.5 to 20 uM measured after 48 hrs by Annexin V-FITC/PI staining based flow cytometry; assay type: functional, cell-based; conditions: dose 2.5-20 µM
MGC-803 [31] = assay: Downregulation of STAT3 expression in human MGC-803 cells at 10 uM measured after 3 hrs by Hoechst/fluorochrome-conjugated antibody staining based confocal laser microscopy; assay type: functional, cell-based
HCT-116 [32] = assay: Downregulation of STAT3 expression in human HCT-116 cells at 10 uM measured after 3 hrs by Hoechst/fluorochrome-conjugated antibody staining based confocal laser microscopy; assay type: functional, cell-based
[33] = Toxicity in po dosed Kunming mouse; assay type: organism-based; conditions: in vivo

Cc1c(Cl)cccc1Nc1ccccc1C(=O)NCCc1c[nH]c2ccccc12
IC50 (HepG2): 7.37 µM | IC50 (MGC-803 [1]): 9.96 µM | IC50 (SGC-7901): 15.5 µM | IC50 (HGC-27): 15.5 µM | viability at 24 h [2]: ≥ 80% | Activity (MGC-803 [3]): Non-Toxic | Activity (HCT-116 [4]): Non-Toxic | inhibition (MGC-803 [5]): Dose-Dependent Effect | Activity (HCT-116 [6]): Active | Activity (MGC-803 [7]): Active | Activity (HCT-116 [8]): 84.74% | Activity (HCT-116 [9]): 3.12% | Activity (HCT-116 [10]): 2.81% | viability at 10 µM (HCT-116 [11]): 58.5% | viability at 20 µM (HCT-116 [12]): 45.9% | Activity (HCT-116 [13]): 42.5% | Activity (HCT-116 [14]): 2.62% | Activity (HCT-116 [15]): Active | Activity (MGC-803 [16]): Dose-Dependent Effect | inhibition (HCT-116 [17]): Active | inhibition [18]: Active | inhibition (MGC-803 [19]): Active | inhibition [20]: Active | Activity [21]: Non-Toxic | Activity (HCT-116 [22]): Active | Activity [23]: Non-Toxic | Activity [24]: Non-Toxic | Activity [25]: Non-Toxic | half-life [26]: 7.58 h | Tmax [27]: 1 h | Cmax [28]: 150 ng/mL | AUC(0-inf) [29]: 1930 ng·h/mL | Activity (MGC-803 [30]): inactive | inhibition (MGC-803 [31]): Active | inhibition (HCT-116 [32]): Active | LD50 [33]: > 1000 mg/kg
